Assay results reported in US6562759B1, “Substituted phenyl uracils” (Bayer Aktiengesellschaft, priority 1999, dated 2003).

Tests used:
weeds [1] = assay: Pre-emergence Test; type: in vivo; details: soil sprayed about 24 hours after sowing, rated after three weeks vs untreated control
Protocol: Pre-emergence Test Solvent: 5 parts by weight of acetone Emulsifier 1 part by weight of alkylaryl polyglycol ether To produce a suitable preparation of active compound, 1 part by weight of active compound is mixed with the stated amount of solvent, the stated amount of emulsifier is added and the concentrate is diluted with water to the desired concentration. Seeds of the test plants are sown in normal soil. After about 24 hours, the soil is sprayed with the preparation of active compound such that the particular amount of active compound desired is applied per unit area. The concentration of the spray liquor is chosen so that the particular amount of active compound desired is applied in 1000 litres of water per hectare. After three weeks, the degree of damage to the plants is rated in % damage in comparison to the development of the untreated control. The figures denote: 0%=no effect (like untreated control) 100%=total destruction

weeds [2] = assay: Post-emergence Test; type: in vivo; details: test plants of height 5-15 cm sprayed, rated after three weeks vs untreated control
Protocol: Post-emergence Test Solvent: 5 parts by weight of acetone Emulsifier: 1 part by weight of alkylaryl polyglycol ether To produce a suitable preparation of active compound, 1 part by weight of active compound is mixed with the stated amount of solvent, the stated amount of emulsifier is added and the concentrate is diluted with water to the desired concentration. Test plants which have a height of 5-15 cm are sprayed with the preparation of active compound such that the particular amounts of active compound desired are applied per unit area. The concentration of the spray liquor is chosen so that the particular amounts of active compound desired are applied in 1000 l of water/ha. After three weeks, the degree of damage to the plants is rated in % damage in comparison to the development of the untreated control. The figures denote: 0%=no effect (like untreated control) 100%=total destruction

With Cn1c(C(F)(F)F)cc(=O)n(-c2cc(C3OCCO3)c(C#N)cc2F)c1=O [Preparation Example 1, 1-[4-cyano-2-fluoro-5-(1,3-dioxolan-2-yl)-phenyl]-3,6-dihydro-2,6-dioxo-3-methyl-4-trifluoromethyl-1(2H)-pyrimidine] the “activity against weeds (degree of damage to the plants)” value (weeds [1]) was “very strong activity against weeds” and the “activity against weeds (degree of damage to the plants)” value (weeds [2]) was “very strong activity against weeds”.
